≈ marks a conversion by molar mass, not a printed value. Where “and” joins values, the source holds several entries; their conditions need not be identical. Identical values can stand only once. Marks after values point to notes of the source that are not given here.
Experiments:
[1] = Conversion of ring open prodrug to anagrelide in human plasma (LC/MS-MS); type: in vitro ADME; settings: human plasma spiked 100 ng/mL, room temperature, first point of measurement (immediately after mixing)
Procedure: Such prodrugs are likely to be extremely rapidly and completely cyclised in plasma to the closed ring 3-alkylanagrelide analogues. […] Human plasma was spiked with anagrelide prodrug (final concentration 100 ng/mL). Immediately after mixing, and at 15, 30, 45 and 60 minutes afterward samples were analysed for anagrelide prodrug and anagrelide.

[2] = Comparative bioavailability study in the dog; type: in vivo
Source text: The potential benefit of improved water solubility on the absorption of these open-ring analogues was shown in a comparative bioavailability study in the dog. Using the unsubstituted ethyl-5,6-dichloro-3,4-dihydro-2-(1H)-iminoquinazoline-3-acetate HBr as a model compound, a comparison was made of the systemic availability of anagrelide when given as this compound or as anagrelide itself in equimolar doses ([…]).

PDEIII = PDEIII inhibition; type: biochemical; settings: more potent than anagrelide itself
Solubility = type: physicochemical
[3] = male dogs, single oral (capsule), anagrelide 6.1 mg/kg or ester prodrug 7.5 mg/kg, individual dogs, listed as Ester prodrug of anagrelide, HBr
[4] = male dogs, single oral (capsule), anagrelide 6.1 mg/kg or ester prodrug 7.5 mg/kg, median
[5] = male dogs, single oral (capsule), anagrelide 6.1 mg/kg or ester prodrug 7.5 mg/kg, individual dogs

Br.CCOC(=O)CN1Cc2c(ccc(Cl)c2Cl)NC1=N [ethyl-5,6-dichloro-3,4-dihydro-2-(1H)-iminoquinazoline-3-acetate HBr]
prodrug remaining in human plasma (conversion to anagrelide) [1]: no prodrug could be found | Cmax for anagrelide, range over dogs ([2]; dog, oral, equimolar doses): 170-418 ngmL^−1 | t½ of 3-hydroxy anagrelide, calculated as ln2/(mean rate constant) ([2]; male dogs, single oral (capsule), anagrelide 6.1 mg/kg or ester prodrug 7.5 mg/kg): 2.1 ^e hours | AUCinfin of 3-hydroxy anagrelide [2, 3]: 1290 ^c ng · h/mL | AUCinfin of anagrelide [2, 3]: 1440 ^d ng · h/mL | k of 3-hydroxy anagrelide [2, 3]: 0.1235 ^c hours^−1 | k of anagrelide [2, 3]: 0.1789 ^d hours^−1 | t½ of 3-hydroxy anagrelide [2, 3]: 5.6 ^c hours | t½ of anagrelide [2, 3]: 3.9 ^d hours | Tmax of 3-hydroxy anagrelide, median [2, 4]: 3.5 ^b hours | Tmax of anagrelide, median [2, 4]: 3.5 ^b hours | t½ of anagrelide, calculated as ln2/(mean rate constant) ([2]; male dogs, single oral (capsule), ester prodrug 7.5 mg/kg): 1.8 ^f hours

O=C1NC2=Nc3ccc(Cl)c(Cl)c3CN2C1O (stereo not drawn) [3-hydroxyanagrelide]
potency as an inhibitor of PDEIII relative to anagrelide (PDEIII): ~40 fold

O=C1CN2Cc3c(ccc(Cl)c3Cl)N=C2N1 [anagrelide, 6,7-dichloro-1,5-dihydroimidazo[2,1-b]-quinazolin-2(3H)-one]
solubility (Solubility; aqueous solution, aqueous buffer, at pH 11.4): ~1000 µg/mL (≈ 3900 µM) | solubility (Solubility; aqueous solution, aqueous buffer, pH range of 4-8): < 10 µg/mL | solubility (Solubility; simulated gastric fluid, in 0.1M HCl): ~170 µg/mL (≈ 664 µM) | Tmax of anagrelide [2, 5]: 2 h | k of anagrelide [2, 5]: 0.4459 ^c hours^−1 and 0.3119 ^c hours^−1 and 0.1953 ^d hours^−1
